Results on 4 molecules are retold here after patent publication US11897969B2, “Inhibition of oxidation-specific epitopes to treat ischemic reperfusion injury” (The Regents of the University of California, priority 2017, dated 2024).

In series [1] the test system is neonatal rat cardiomyocytes (NNCM). The series is described as follows: In vitro OxPC treatment and assessment of cell viability (calcein-AM / ethidium homodimer-1). It is filed as cell-based. The note with it: 4 hours. The text has this: Cell culture of rat cardiomyocytes. All animal experiments performed conform to the NIH guidelines regarding animal experimentation. Neonatal rat cardiomyocytes (NNCM) were isolated from 1-2 day old Sprague-Dawley rat pups. Whole hearts were excised from rat pups by midline sternotomy after cervical dislocation. Hearts were washed and minced to adequately break up macroscopic structures before re-washing with cold filter sterilized phosphate buffered saline (PBS) containing 10 g/L of glucose to remove red blood cells and debris. Repeated enzymatic digestion of heart fragments was performed with collagenase (740U), trypsin (370U), and DNase (2880U) (Worthington Biochemical) agitating at 35° C. for three 10-minute and three 7-minute digestions. Digested supernatant solutions were centrifuged into a cell pellet and then separation of cell types using a Percoll® (GE Healthcare) gradient of 1.05, 1.06, and 1.082 g/mL allowed for a layer enriched with myocytes to be isolated. To remove fibroblasts, the cells were pre-plated on non-coated 150 mm culture plates for 45 min. Purified NNCM (95% pure by sarcomere staining) were then transferred to sterile tissue culture plates at a cell density of 1.75×10^6/35-mm plate. Collagen-coated glass coverslips in 24-well tissue culture plates were used for microscopy analysis and NNCM were plated at 3.2×10^5/well. Cells were incubated overnight in Dulbecco's Modified Eagle Medium/Ham's nutrient mixture F-12 (1:1) containing 2 mM glutamine, 3 mM NaHCO3, 15 mM HEPES, and […] gentamycin (DMEM/F12) plus 10% fetal bovine serum (FBS). DMEM/F12 with 10% FBS was changed to serum-free DMEM/F12 (DFSF) the following day. Control solution consisted of 140 mM NaCl, 6 mM KCl, 1.25 mM CaCl2, 6 mM HEPES, and 10 mM D-glucose buffered to pH 7.4, ischemic solution was buffered to pH 6.0, and consisted of the same components, except 8 mM KCl was added and no D-glucose was added. The ischemic buffer was purged of oxygen by bubbling 95% N2 and 5% CO2 gas into the medium for 1 hour before being applied to cells. A hypoxic chamber designed for storage in a 37° C. water jacketed tissue culture incubator was used to maintain an atmosphere of 95% N2 and 5% CO2 gas conditions for 18 hours overnight. Reperfusion was achieved by applying control buffer to cells for 4 hours in a normal culture incubator. After the treatment, cells were scraped off into a small portion of PBS. Cardiomyocyte cell lysates were subjected to Western Blot analysis.
In vitro OxPC treatment and assessment of cell viability. Fresh DFSF was applied to NNCM on glass cover-slips and supplemented with 1, 2, 5, and 10 μM concentrations of OxPL lipids sonicated into PBS, forming micelles. Four OxPL species, POVPC, PONPC, PGPC, and PAzPC were applied to NNCM plates for 4 hours and compared to a non-oxidized PC standard PSPC. Plates were then washed with PBS before NNCM were analyzed for cell viability using vital dyes, calcein-acetoxymethyl ester (AM) and ethidium homodimer-1 (Invitrogen). Mitochondrial permeability after exposure to OxPL molecules was monitored by fluorescence microscopy using a solution of calcein-AM fluorescent dye with cobalt chloride (CoCl2) applied to cardiomyocytes cultured on glass coverslips.

Series [2] shares this test system. Description: Neutralization of OxPL by E06: OxPL-induced cardiomyocyte cell death with E06 co-treatment. It is filed as cell-based. To be noted: 5 μM lipid alone, 2 hrs. From the text:
Cell culture of rat cardiomyocytes. All animal experiments performed conform to the NIH guidelines regarding animal experimentation. Neonatal rat cardiomyocytes (NNCM) were isolated from 1-2 day old Sprague-Dawley rat pups. Whole hearts were excised from rat pups by midline sternotomy after cervical dislocation. Hearts were washed and minced to adequately break up macroscopic structures before re-washing with cold filter sterilized phosphate buffered saline (PBS) containing 10 g/L of glucose to remove red blood cells and debris. Repeated enzymatic digestion of heart fragments was performed with collagenase (740U), trypsin (370U), and DNase (2880U) (Worthington Biochemical) agitating at 35° C. for three 10-minute and three 7-minute digestions. Digested supernatant solutions were centrifuged into a cell pellet and then separation of cell types using a Percoll® (GE Healthcare) gradient of 1.05, 1.06, and 1.082 g/mL allowed for a layer enriched with myocytes to be isolated. To remove fibroblasts, the cells were pre-plated on non-coated 150 mm culture plates for 45 min. Purified NNCM (95% pure by sarcomere staining) were then transferred to sterile tissue culture plates at a cell density of 1.75×10^6/35-mm plate. Collagen-coated glass coverslips in 24-well tissue culture plates were used for microscopy analysis and NNCM were plated at 3.2×10^5/well. […]
In vitro OxPC treatment and assessment of cell viability. […] Plates were then washed with PBS before NNCM were analyzed for cell viability using vital dyes, calcein-acetoxymethyl ester (AM) and ethidium homodimer-1 (Invitrogen). Mitochondrial permeability after exposure to OxPL molecules was monitored by fluorescence microscopy using a solution of calcein-AM fluorescent dye with cobalt chloride (CoCl2) applied to cardiomyocytes cultured on glass coverslips.
To evaluate the effect of neutralizing OxPL on cell viability, the IgM E06 antibody was used at a concentration of 10 μg/mL within cell culture. […] Cell viability was assessed as described above. […] Images were assessed using Adobe Photoshop CS5.1 Software.

In series [3] the test system is E06-scFv-Tg/Ldlr−/− mice. Description: Myocardial ischemia-reperfusion (LAD ligation), histologic infarct size in E06-scFv-Tg/Ldlr−/− mice. It is filed as in vivo, mouse. From the text: (§1) Generation and characterization of E06-scFv transgenic mice. The generation of transgenic C57BL/6 mice expressing the T15/E06 idiotype as a single chain variable antibody fragment—termed E06-scFv-Tg. In brief, the cDNAs encoding E06 variable regions of the heavy and light chains were linked with a 15-amino acid peptide by overlapping PCR, and cloned into an expression vector pSecTag2A (Invitrogen) containing a murine Ig kappa-chain leader sequence for secretion and c-myc and polyHis as epitope tags. […] The same construct was then cloned into the liver-specific expression vector pLiv7 and used to generate transgenic (Tg) mice in the C57BL/6 background expressing the E06-scFv transgene driven by the apoE promoter. Offspring were screened both for plasma E06-scFv titer and integration of the transgene by PCR amplification of the tail DNA. The transgenic E06-scFv founder lines were bred with each other to generate “homozygous” transgenic mice, and in turn, these were crossed into Ldl^−/− mice on the C57BL/6 background. All animals were genotyped for E06-scFv and Ldlr^−/−, respectively and plasma assayed to confirm expression of the E06-scFv by immunoassay. The E06-scFv mRNA was strongly expressed in liver, peritoneal macrophages and spleen, and to a lesser extent in heart. Plasma levels of the E06-scFv averaged 20-30 μg/ml in these studies.
Adult (18-20-week-old) E06-scFv-Tg/Ldlr^−/− mice or Ldlr^−/− mice weighing 16-40 grams, were anesthetized with a mixture of Ketamine (50 mg/kg) and Xylazine (5 mg/kg) and 1.0% isoflurane. Mice were intubated with a pressure ventilator (Kent Scientific, PhysioSuite. Peak inspiration pressure was ˜13 cm H2O and inspiration rate 100-110. The skin over the mid thorax was shaved and cleansed with Betadine or Chlorhexidine solution. A skin incision was made from the midsternal line toward the left armpit, and the chest opened with a 1 cm lateral cut along the left side of the sternum, cutting between the 3rd and 4th ribs to expose the left ventricle of the heart. The ascending aorta and main pulmonary artery were identified; the left anterior descending (LAD) coronary artery was located as it traverses the anterior wall of the heart, between the left and right ventricles. LAD coronary artery occlusion was performed by tying an 8-0 prolene suture ligature on a piece of 2-0 silk suture. Occlusion of the artery was assessed by blanching of the territory of perfusion of the LAD coronary artery, along with acute ST segment elevation on limb-lead electrocardiographic leads. Following an ischemic period of 60 minutes, the suture was removed from around the LAD coronary artery. […]
Histologic assessment of infarct size. […] The sizes of AAR and infarct area (IA) were quantified by computerized planimetry using ImageJ. […]

Series [4] can be described thus: Plasma levels of E06-scFv in transgenic mice (immunoassay). The class given is in vivo, mouse. The note with it: transgenic mice constitutively expressing E06-scFv (apoE promoter).
Text: as §1

Series [5] is described as follows: Binding properties of E06-scFv secreted into HEK293 culture supernatant. To be noted: E06-scFv in HEK293 culture supernatant.
Text: as §1

[6] abbreviates: E06-scFv-Tg/Ldlr−/− mice, 7 days after 60 minutes LAD ischemia and reperfusion.
The mark [7] stands for this setting: E06-scFv-Tg/Ldlr−/− vs Ldlr−/− mice, 7 days after IR.

Where “and” joins values, the source holds several entries; their conditions need not be identical. Equal entries are not always repeated.

Turning to `CCCCCCCCCCCCCCCC(=O)OC[C@H](COP(=O)([O-])OCC[N+](C)(C)C)OC(=O)CCCCCCCC=O` [PONPC, 1-palmitoyl-2-(9-oxo)nonanoyl-sn-glycero-3-phosphocholine], the cell death in series [1] (1 μM lipid) is 28.3±8.9%; in series [1] (2 μM lipid) it was 42.0±6.2%; in series [1] (5 μM lipid), 70.0±18.6%. In addition, the “cell death without E06” value in series [2] was 25.3±3.4%.

Turning to `CCCCCCCCCCCCCCCC(=O)OC[C@H](COP(=O)([O-])OCC[N+](C)(C)C)OC(=O)CCCC=O` [POVPC, 1-palmitoyl-2-(5-oxovaleroyl)-sn-glycero-3-phosphocholine], in series [1] (10 μM lipid), the cell death is 68.6±14.8%. The “cell death without E06” value in series [2] came to 22.6±4.14%.

Regarding `CCCCCCCCCCCCCCCCCC(=O)O[C@H](COC(=O)CCCCCCCCCCCCCCC)COP(=O)([O-])OCC[N+](C)(C)C` [PSPC], the cell death is given as 7.6±5.1% in series [1] (1 μM lipid), 9.1±10.5% in series [1] (2 μM lipid), 10.5±1.6% in series [1] (5 μM lipid) and 5.5±1.6% in series [1] (10 μM lipid). The “cell death without E06” value in series [2] was 6.2±1.6%.

B1: E06-scFv: single chain variable antibody fragment of E06 (heavy and light variable regions joined by 15-amino acid linker), expressed in transgenic mice (protein)
scFv: DAAQPARRAVRSLDIVMTQSPSSLSVSAGKKVTISCTASESLYSSKHKVHYLAWYQKKPEQSPKLLIYGASNRYIGVPDRFTGSGSGTDFTLTISSVQVEDLTHYYCAQFYSYPLTFGAGTKLEIKGGGGSGGGGSGGGGSEVKLVESGGGLVQPGGSLRLSCATSGFTFSDFYMEWVRQAPGKRLEWIAASRNKANDYTTEYADSVKGRFIVSRDTSQSILYLQMNALRAEDTAIYYCARDYYGSSYWYFDVWGAGTTVTVSSRGGPEQKLISEEDLNSAVD
In the case of B1, in series [3] (setting [6]), the “IA/AAR (infarct area as percentage of area at risk)” value amounted to 47.7±17.6% and the “IA/LV (infarct area as percentage of left ventricle)” value is reported as 16.3±7.5%. Also, in series [3] (setting [7]), the “smaller IA/AAR compared to Ldlr−/− mice” value worked out at 65.9%; the “smaller IA/LV compared to Ldlr−/− mice” value was 58.8% and 58.5%. Moreover, in series [4], the “plasma levels of E06-scFv” value lay in the range of 20 to 30 µg/mL. Also, the “binding properties compared with intact E06” value in series [5] is given as “mimic those of the intact E06”.
